Assay results taken from US12156920B2, “Double-labeled probe for molecular imaging and use thereof” (Deutsches Krebsforschungszentrum, priority 2017, dated 2024).
Values joined by “and” are separate entries in the source; they are usually repeats but may differ in a detail not shown here. Equal entries are not always repeated. Blank lines part the entries; values can stand above or below the compound they belong to.

Legend:
PSMA+ LNCaP cells = test: Internalization experiments (specific cell surface bound and internalized fractions); format: cell-based; conditions: 68Ga-labeled compound 30 nM, 45 min
Protocol: (§1) PSMA^+ LNCaP cells (ATCC CRL-1740) were cultured in RPMI medium supplemented with 10% fetal calf serum and 2 mmol/L L-glutamine (all from PAA). Cells were grown at 37° C. in humidified air with 5% CO2 and were harvested using trypsin-ethylenediaminetetraacetic acid (trypsin-EDTA; 0.25% trypsin, 0.02% EDTA, Invitrogen).
For internalization experiments, 10^5 cells per well were seeded in poly-L-lysine coated 24-well cell culture plates 24 h before incubation. After washing, the cells were incubated with 30 nM of the radiolabeled compound for 45 min at 37° C. and at 4° C., respectively. Cellular uptake was terminated by washing 3 times with 1 mL of ice-cold PBS. To remove surface-bound radioactivity, cells were incubated twice with 0.5 mL glycine-HCl in PBS (50 mM, pH=2.8) for 5 min. The cells were washed with 1 mL of ice-cold PBS and lysed using 0.3 N NaOH (0.5 mL). The surface-bound and the internalized fractions were measured in a gamma counter. The cell uptake was calculated as percent of the initially added radioactivity bound to 10^5 cells [% ID/10^5 cells].

PSMA = target: T1, PSMA (Homo sapiens, UniProt Q04609); test: Competitive cell binding assay on LNCaP cells (PSMA binding affinity); conditions: competition against 0.2 nM 68Ga-labeled PSMA-10
T1 construct: endogenous in cells; host or cells: LNCaP cells (ATCC CRL-1740)
T1 sequence (Q04609 whole entry): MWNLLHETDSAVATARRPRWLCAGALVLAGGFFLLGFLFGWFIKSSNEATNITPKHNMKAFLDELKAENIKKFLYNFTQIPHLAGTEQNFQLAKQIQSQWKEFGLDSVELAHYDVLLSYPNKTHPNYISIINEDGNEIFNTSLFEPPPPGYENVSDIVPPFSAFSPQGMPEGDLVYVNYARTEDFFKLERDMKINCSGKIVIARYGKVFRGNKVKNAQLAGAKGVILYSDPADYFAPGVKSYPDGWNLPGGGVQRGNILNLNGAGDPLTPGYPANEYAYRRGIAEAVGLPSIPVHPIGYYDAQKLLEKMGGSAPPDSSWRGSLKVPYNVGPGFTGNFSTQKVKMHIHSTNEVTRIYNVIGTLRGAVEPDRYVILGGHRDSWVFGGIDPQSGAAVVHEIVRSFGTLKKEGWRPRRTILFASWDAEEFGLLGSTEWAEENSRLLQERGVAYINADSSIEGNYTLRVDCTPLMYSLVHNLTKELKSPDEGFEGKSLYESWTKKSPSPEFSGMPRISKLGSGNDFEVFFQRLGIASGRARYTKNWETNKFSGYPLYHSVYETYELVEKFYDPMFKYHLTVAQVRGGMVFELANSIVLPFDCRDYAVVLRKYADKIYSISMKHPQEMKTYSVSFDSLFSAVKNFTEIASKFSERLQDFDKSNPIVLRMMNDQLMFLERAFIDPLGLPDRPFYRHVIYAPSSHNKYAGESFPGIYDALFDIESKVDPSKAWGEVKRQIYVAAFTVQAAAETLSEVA
Protocol: as §1
The competitive cell binding assay and internalization experiments were performed as described previously (4). Briefly, the cells (10^5 per well) were incubated with a 0.2 nM solution of ^68Ga-labeled radioligand [Glu-urea-Lys(Ahx)]2-HBED-CC (PSMA-10, precursor ordered from ABX, Radeberg, Germany) in the presence of 12 different concentrations of analyte (0-5000 nM, 100 μL/well). After incubation, the mixture was removed and the wells were washed 3 times with PBS using a multiscreen vacuum manifold (Millipore, Billerica, Mass.). Cell-bound radioactivity was measured using a gamma counter (Packard Cobra II, GMI, Minnesota, USA). The 50% inhibitory concentration (IC50) values were calculated by fitting the data using a nonlinear regression algorithm (GraphPad Software).

[1] = test system: LNCaP-tumor bearing balb/c nu/nu mice; test: Biodistribution (organ distribution) of 68Ga-labeled compounds; format: in vivo; conditions: 68Ga labeled
Protocol: (§2) The precursor peptides [1 nmol in HEPES buffer (580 mg/ml), 90 μL] were added to 40 μL [^68Ga]Ga^3+ eluate (˜40 MBq). The pH was adjusted to 3.8 using 30% NaOH and 10% NaOH, respectively. The reaction mixture was incubated at 98° C. for 10 minutes. The radiochemical yield (RCY) was determined by HPLC. For the experimental tumor models 5×10^6 cells of LNCaP (in 50% Matrigel; Becton Dickinson, Heidelberg, Germany) were subcutaneously inoculated into the right trunk of 7- to 8-week-old male BALB/c nu/nu mice (Charles River). The tumors were allowed to grow until approximately 1 cm^3 in size. The ^68Ga-labeled compounds were injected into a tail vein (1-2 MBq; 60 pmol). […] Organs of interest were dissected, blotted dry, and weighed. The radioactivity was measured using a gamma counter and calculated as % ID/g. All animal experiments complied with the current laws of the Federal Republic of Germany.

[2] = as above; format: in vivo, mice; conditions: male, BALB/c nu/nu, mouse, in vivo, iv, 60 pmol, total radioactivity
Protocol: as §2

Ki (PSMA): 9.82 ± 1.26 nM
Organ distribution Liver [1]: 0.34 % ID/g
Organ distribution Lung [1]: 1.19 % ID/g
Tumor-to-Organ ratio T/Blood ([1]; 1 h p.i.): 9.23
Tumor-to-Organ ratio T/Brain ([1]; 1 h p.i.): 12.23
Tumor-to-Organ ratio T/Heart ([1]; 1 h p.i.): 5.89
Tumor-to-Organ ratio T/Intestine ([1]; 1 h p.i.): 4.29
Tumor-to-Organ ratio T/Kidney ([1]; 1 h p.i.): 0.04
Tumor-to-Organ ratio T/Liver ([1]; 1 h p.i.): 3.42
Tumor-to-Organ ratio T/Lung ([1]; 1 h p.i.): 2.07
Tumor-to-Organ ratio T/Muscle ([1]; 1 h p.i.): 4.89
Tumor-to-Organ ratio T/Spleen ([1]; 1 h p.i.): 0.27
Organ distribution Tumor (tumor accumulation) ([1]; 1 h p.i., LNCaP tumor): 4.89±1.34 % ID/g and 4.89 % ID/g
Organ distribution Blood ([1]; 1 h p.i., tail vein): 0.53 % ID/g
Organ distribution Brain ([1]; 1 h p.i., tail vein): 0.40 % ID/g
Organ distribution Heart ([1]; 1 h p.i., tail vein): 0.83 % ID/g
Organ distribution Intestine ([1]; 1 h p.i., tail vein): 1.14 % ID/g
Organ distribution Kidney ([1]; 1 h p.i., tail vein): 139.44 % ID/g
Organ distribution Liver ([1]; 1 h p.i., tail vein): 1.43 % ID/g
Organ distribution Lung ([1]; 1 h p.i., tail vein): 2.36 % ID/g
Organ distribution Muscle ([1]; 1 h p.i., tail vein): 1.00 % ID/g
Organ distribution Spleen ([1]; 1 h p.i., tail vein): 17.88 % ID/g
Organ distribution Blood ([1]; 2 h p.i.): 0.32 % ID/g
Organ distribution Brain ([1]; 2 h p.i.): 0.23 % ID/g
Organ distribution Heart ([1]; 2 h p.i.): 0.31 % ID/g
Organ distribution Intestine ([1]; 2 h p.i.): 1.19 % ID/g
Organ distribution Kidney ([1]; 2 h p.i.): 129.73 % ID/g
Organ distribution Muscle ([1]; 2 h p.i.): 2.06 % ID/g
Organ distribution Spleen ([1]; 2 h p.i.): 12.41 % ID/g
Organ distribution Tumor ([1]; 2 h p.i., LNCaP tumor): 6.09 % ID/g
Structure (SMILES): O=C(O)CCc1ccc(O)c(CN(CCN(CC(=O)O)Cc2cc(CCC(=O)NCCCCCC(=O)NCCCCC(NC(=O)NC(CCC(=O)O)C(=O)O)C(=O)O)ccc2O)CC(=O)O)c1 (stereo not drawn) [PSMA-11, Glu-urea-Lys-(Ahx)-HBED-CC, reference compound]
Specific cell surface bound (PSMA+ LNCaP cells): 2.31 ± 0.61 % ID/10^5 cells
Specific internalized (PSMA+ LNCaP cells): 3.57 ± 0.51 % ID/10^5 cells

Structure (SMILES): CC1(C)C(/C=C/C2=C(Oc3ccc(S(=O)(=O)O)cc3)C(=C\C=C3/N(CCCCS(=O)(=O)O)c4ccc(S(=O)(=O)O)cc4C3(C)C)/CCC2)=[N+](CCCCCC(=O)NCCOCCOCCNC(=O)CCc2ccc(O)c(CN(CCN(CC(=O)O)Cc3cc(CCC(=O)NCc4cn(CCCCC(=O)NC(CCC(=O)O)C(=O)NC(Cc5cnc[nH]5)C(=O)NCCCCC(NC(=O)NC(CCC(=O)O)C(=O)O)C(=O)O)nn4)ccc3O)CC(=O)O)c2)c2ccc(S(=O)(=O)O)cc21 (stereo not drawn) [PSMA-(HE)1-HBED-CC-PEG2-IRDye800CW, Glu-urea-Lys-(HE)1-HBED-CC-PEG2-IRDye800CW]
tissue uptake at 1 h ([2]; Organ distribution Blood): 1.52 %ID/g
tissue uptake at 1 h ([2]; Organ distribution Brain): 0.3 %ID/g
tissue uptake at 1 h ([2]; Organ distribution Heart): 0.94 %ID/g
tissue uptake at 1 h ([2]; Organ distribution Intestine): 1.29 %ID/g
tissue uptake at 1 h ([2]; Organ distribution Kidney): 84.3 %ID/g
tissue uptake at 1 h ([2]; Organ distribution Liver): 1.19 %ID/g
tissue uptake at 1 h ([2]; Organ distribution Lung): 2.46 %ID/g
tissue uptake at 1 h ([2]; Organ distribution Muscle): 1.03 %ID/g
tissue uptake at 1 h ([2]; Organ distribution Spleen): 8.17 %ID/g
tissue uptake at 1 h ([2]; Organ distribution Tumor (tumor accumulation)): 3.92 %ID/g
tissue to tissue ratio at 1 h ([2]; Tumor-to-Organ ratio T/Blood): 2.58
tissue to tissue ratio at 1 h ([2]; Tumor-to-Organ ratio T/Brain): 13
tissue to tissue ratio at 1 h ([2]; Tumor-to-Organ ratio T/Heart): 4.19
tissue to tissue ratio at 1 h ([2]; Tumor-to-Organ ratio T/Intestine): 3.05
tissue to tissue ratio at 1 h ([2]; Tumor-to-Organ ratio T/Kidney): 0.05
tissue to tissue ratio at 1 h ([2]; Tumor-to-Organ ratio T/Liver): 3.3
tissue to tissue ratio at 1 h ([2]; Tumor-to-Organ ratio T/Lung): 1.6
tissue to tissue ratio at 1 h ([2]; Tumor-to-Organ ratio T/Muscle): 3.81
tissue to tissue ratio at 1 h ([2]; Tumor-to-Organ ratio T/Spleen): 0.48
